IC50 data for 2 compounds are collected here from ChEMBL document CHEMBL5050858, “Polyheterocyclic compounds as mettl3 inhibitors” (2021).

The structures appear in SMILES notation.

The test deals with METTL3/METTL14 (Homo sapiens, UniProt Q86U44). Put plainly: Inhibition of full-length His-tagged METTL3 (unknown origin) coexpressed with full-length FLAG-tagged METTL14 (unknown origin) expressed in baculovirus expression system using 5'P-uacacucgaucuggacuaaagcugcuc-3' RNA as substrate pre-incubated for 10 mins and followed by substrate addition and measured after 60 mins by methyltransferase assay.
Sequence of METTL3/METTL14 (Q86U44 whole entry): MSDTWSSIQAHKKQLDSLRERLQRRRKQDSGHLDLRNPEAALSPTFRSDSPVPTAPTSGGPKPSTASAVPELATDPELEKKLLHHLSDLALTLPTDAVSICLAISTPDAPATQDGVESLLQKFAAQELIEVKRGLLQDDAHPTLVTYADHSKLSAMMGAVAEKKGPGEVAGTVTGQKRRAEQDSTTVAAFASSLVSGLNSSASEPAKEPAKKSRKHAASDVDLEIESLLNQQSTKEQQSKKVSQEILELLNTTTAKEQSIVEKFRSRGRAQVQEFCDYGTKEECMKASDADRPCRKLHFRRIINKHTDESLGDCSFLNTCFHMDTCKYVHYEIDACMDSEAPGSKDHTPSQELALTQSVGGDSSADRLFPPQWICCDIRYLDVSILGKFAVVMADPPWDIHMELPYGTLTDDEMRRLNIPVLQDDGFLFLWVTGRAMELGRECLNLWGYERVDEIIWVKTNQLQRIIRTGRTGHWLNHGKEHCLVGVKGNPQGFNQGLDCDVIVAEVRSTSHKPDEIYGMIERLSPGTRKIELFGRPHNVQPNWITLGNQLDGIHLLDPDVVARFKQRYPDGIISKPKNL
Sequence of METTL3/METTL14 (Q9HCE5 whole entry, further chain): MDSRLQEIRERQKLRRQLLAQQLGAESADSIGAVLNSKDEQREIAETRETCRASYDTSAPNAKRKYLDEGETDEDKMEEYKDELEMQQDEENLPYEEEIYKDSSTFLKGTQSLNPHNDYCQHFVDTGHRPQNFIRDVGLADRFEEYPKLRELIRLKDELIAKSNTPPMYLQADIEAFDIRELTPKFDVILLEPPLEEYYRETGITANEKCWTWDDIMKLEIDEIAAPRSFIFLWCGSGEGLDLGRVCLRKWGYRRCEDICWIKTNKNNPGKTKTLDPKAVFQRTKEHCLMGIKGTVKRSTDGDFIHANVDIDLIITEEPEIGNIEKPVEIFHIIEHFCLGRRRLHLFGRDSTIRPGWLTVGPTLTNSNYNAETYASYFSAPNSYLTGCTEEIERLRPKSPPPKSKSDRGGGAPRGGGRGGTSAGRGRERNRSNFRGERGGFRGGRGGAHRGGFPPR

In general, IC50 refers to the point on the concentration scale where inhibition reaches its midpoint. A lower IC50 goes with higher potency. Turning to `O=C(NCc1ccc2cc(CCN3CC4(CCC4)C3)[nH]c2c1)c1cc(=O)n2ccccc2n1`, it took 118 nM to reach half-maximal inhibition (IC50).
Under `O=C(NCc1ccc2cc(CN3CC(C4CC4)C3)[nH]c2c1)c1cc(=O)n2ccccc2n1` stands 9.24 nM.
